From patent US20260097047A1, “Small molecule inhibitors of the ribosome biogenesis factor NVL2” (Board of Regents, The University of Texas System, priority 2023, published 2026)

System: HCT116 cells
Test: Cell viability assay (CellTiter-Glo, 72 hours) in HCT116 human colorectal cancer cells
Format: cell-based
Settings: Homo sapiens, HCT-116; Table 3; HCT116, 72 hours; read-out: Activity
Method in brief: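 Ten-point IC50 came from an asymmetric five-parameter fit of luminescence corrected to vehicle wells. ATP content was measured by CellTiter-Glo 72 h after dosing at 37 °C. Cells were seeded at 2,000/well the day before, with 0.5% DMSO in all wells.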

IC50 | Structure (SMILES)
< 500 nM | C#CCOCCN1C(=O)c2ccccc2Sc2cc(NC(=O)Nc3ccccc3)ccc21 [Table 3: —(CH2)2OCH2CCH; Ph; CH/CH, 1-(11-Oxo-10-(2-(prop-2-yn-1-yloxy)ethyl)-10,11-dihydrodibenzo[b,f][1,4]thiazepin-7-yl)-3-phenylurea]

Same assay, conditions: Homo sapiens, HCT-116; Table 4; HCT116, 72 hours; read-out: Activity

IC50 | Structure (SMILES)
< 500 nM | CC#CCN1C(=O)c2ccccc2Sc2cc(NC(=S)Nc3ccc(OC(F)F)cc3)ccc21 [Table 4: —CH2CCMe; 4-F2HCOPh; CH, 1-(10-(But-2-yn-1-yl)-11-oxo-10,11-dihydrodibenzo[b,f][1,4]thiazepin-7-yl)-3-(4-(difluoromethoxy)phenyl)thiourea]

Same assay, conditions: Homo sapiens, HCT-116; Table 5; HCT116, 72 hours; read-out: Activity

IC50 | Structure (SMILES)
< 500 nM | CCC/C=C/CN1C(=O)c2ccccc2Sc2cc(Nc3ncccc3F)ccc21 [(E)-7-((3-Fluoropyridin-2-yl)amino)-10-(hex-2-en-1-yl)dibenzo[b,f][1,4]thiazepin-11 (10H)-one]
< 500 nM | CC#CCN1C(=O)c2ccccc2Sc2cc(Nc3nccc(C#N)c3C)ccc21 [2-((10-(But-2-yn-1-yl)-11-oxo-10,11-dihydrodibenzo[b,f][1,4]thiazepin-7-yl)amino)-3-methylisonicotinonitrile]
< 500 nM | CC#CCN1C(=O)c2ccccc2Sc2cc(Nc3nccc(C#N)n3)ccc21 [2-((10-(But-2-yn-1-yl)-11-oxo-10,11-dihydrodibenzo[b,f][1,4]thiazepin-7-yl)amino)pyrimidine-4-carbonitrile]
1000 to 5000 nM | CCC/C=C/CN1C(=O)c2ccccc2Sc2cc(Nc3ncccn3)ccc21 [(E)-10-(Hex-2-en-1-yl)-7-(pyrimidin-2-ylamino)dibenzo[b,f][1,4]thiazepin-11 (10H)-one]
500 to 1000 nM | CCC/C=C/CN1C(=O)c2ccccc2Sc2cc(Nc3cc(C#N)ccn3)ccc21 [(E)-2-((10-(Hex-2-en-1-yl)-11-oxo-10,11-dihydrodibenzo[b,f][1,4]thiazepin-7-yl)amino) isonicotinonitrile]
< 500 nM | CC#CCN1C(=O)c2ccccc2Sc2cc(Nc3nccc(-c4cccnc4)n3)ccc21 [10-(But-2-yn-1-yl)-7-((4-(pyridin-3-yl)pyrimidin-2-yl)amino)dibenzo[b,f][1,4]thiazepin-11 (10H)-one]

Same assay, conditions: Homo sapiens, HCT-116; Table 6; HCT116, 72 hours; read-out: Activity

IC50 | Structure (SMILES)
< 500 nM | CC#CCN1C(=O)c2ccccc2Sc2cc(NC3CCOC3)cnc21 (stereo not shown) [11-(But-2-yn-1-yl)-3-((tetrahydrofuran-3-yl)amino)benzo[f]pyrido[3,2-b][1,4]thiazepin-10(11H)-one]
< 500 nM | CC#CCN1C(=O)c2ccccc2Sc2cc(NC3CC4(COC4)C3)ccc21 [7-((2-Oxaspiro[3.3]heptan-6-yl)amino)-10-(but-2-yn-1-yl)dibenzo[b,f][1,4]thiazepin-11 (10H)-one]

Same assay, conditions: Table 2; HCT116, 72 hours; read-out: Activity

IC50 | Structure (SMILES)
< 500 nM | CC#CCN1C(=O)c2ccccc2Sc2cc(NC(=S)N3CCC3)cnc21 [Table 2: —CH2CCMe; azetidin-1-yl; CH; N]
< 500 nM | CC#CCN1C(=O)c2ccccc2Sc2cc(NC(=S)N3CCCC3)cnc21

Same assay, conditions: Table 3; HCT116, 72 hours; read-out: Activity

IC50 | Structure (SMILES)
< 500 nM | CC#CCN1C(=O)c2ccccc2Sc2cc(NC(=O)Nc3ccc(OC)cc3)ccc21 [Table 3: —CH2CCMe; 4-MeOPh; CH/CH]
< 500 nM | CC#CCN1C(=O)c2ccccc2Sc2cc(NC(=O)NC34CC(OC)(C3)C4)ccc21

Same assay, conditions: Table 4; HCT116, 72 hours; read-out: Activity

IC50 | Structure (SMILES)
< 500 nM | CC#CCN1C(=O)c2ccccc2Sc2cc(NC(=S)Nc3ccc4oc(=O)n(C)c4c3)ccc21
< 500 nM | CC#CCN1C(=O)c2ccccc2Sc2cc(NC(=S)Nc3cccc(OCF)c3)cnc21 [Table 4: —CH2CCMe; 3-FH2COPh; N]
< 500 nM | CC#CCN1C(=O)c2ccccc2Sc2cc(NC(=S)N[C@H]3C[C@@H](OC)C3)cnc21 [Table 4: —CH2CCMe; cis-3-MeOcBu; N]
< 500 nM | CC#CCN1C(=O)c2ccccc2Sc2cc(NC(=S)N[C@H]3C[C@H](OC)C3)ccc21 [Table 4: —CH2CCMe; trans-3-MeOcBu; CH]
< 500 nM | CC#CCN1C(=O)c2ccccc2Sc2cc(NC(=S)N[C@H]3C[C@H](O)C3)ccc21 [Table 4: —CH2CCMe; trans-3-OH-cBu; CH]

Same assay, conditions: Table 5; HCT116, 72 hours; read-out: Activity

Structure (SMILES) | IC50
CC#CCN1C(=O)c2ccccc2Sc2cc(Nc3nnccc3C)cnc21 | < 500 nM
CC=CCN1C(=O)c2ccccc2Sc2cc(Nc3ncccc3C)cnc21 | < 500 nM

Same assay, conditions: Table 6; HCT116, 72 hours; read-out: Activity

IC50 | Structure (SMILES)
< 500 nM | CC#CCN1C(=O)c2ccccc2Cc2cc(NCCCOC)ccc21 [Table 6: —CH2CCMe; (CH2)3OMe; CH/CH; CH2]
< 500 nM | CC#CCN1C(=O)c2ccccc2Sc2cc(NC3CC4(CC(O)C4)C3)cnc21 (stereo not shown)
< 500 nM | CC#CCN1C(=O)c2ccccc2Sc2cc(NC3CC(COC)C3)ccc21 (stereo not shown)

Same assay, conditions: Table 7; cell viability assay, CellTiter-Glo, 72 hours; scaffold drawing 42 with R^2, R^3, X/Y, Z; read-out: Activity

IC50 | Structure (SMILES)
1000 to 5000 nM | COCCN1C(=O)c2ccccc2Sc2cc(NC(=O)C3CC3)ccc21 [—(CH2)2OMe; cPr; CH/CH; S]
< 500 nM | COCCN1C(=O)c2ccccc2Sc2cc(NC(=O)c3cccc(OCF)c3)ccc21 [—(CH2)2OMe; 3-FH2COPh; CH/CH; S]
500 to 1000 nM | C#Cc1ccc(C(=O)Nc2ccc3c(c2)Sc2ccccc2C(=O)N3CCOC)cc1 [—(CH2)2OMe; 4-HCCPh; CH/CH; S]
1000 to 5000 nM | COCCN1C(=O)c2ccccc2Sc2cc(NC(=O)c3ccc(Cl)c(Cl)c3)ccc21 [—(CH2)2OMe; 3,4-Cl2Ph; CH/CH; S]
1000 to 5000 nM | COCCN1C(=O)c2ccccc2Sc2cc(NC(=O)c3ccncc3)ccc21 [—(CH2)2OMe; pyrid-4-yl; CH/CH; S]
1000 to 5000 nM | COCCN1C(=O)c2ccccc2Sc2cc(NC(=O)c3ccc4oc(=O)[nH]c4c3)ccc21
< 500 nM | COCCN1C(=O)c2ccccc2Sc2cc(NC(=O)c3ccccc3OC)ccc21 [—(CH2)2OMe; 2-MeOPh; CH/CH; S]
1000 to 5000 nM | COCCN1C(=O)c2ccccc2Sc2cc(NC(=O)c3ccc(C(F)(F)F)cc3)ccc21 [—(CH2)2OMe; 4-CF3Ph; CH/CH; S]
< 500 nM | C#CCOCCN1C(=O)c2ccccc2Sc2cc(NC(=O)c3ccc4scnc4c3)ccc21

Same assay, conditions: Table 8; analogs of scaffold drawing 43 defined by R^2, R^3, X/Y, W; read-out: Activity (IC50 class, cell viability assay)

IC50 | Structure (SMILES)
< 500 nM | CC#CCN1C(=O)c2ccccc2Sc2cc(NC(=O)C(C)CCOC)ccc21 (stereo not shown) [—CH2CCMe; MeO(CH2)2CHMe-; CH/CH; CH]
< 500 nM | CON=C1CC2(C1)CC(C(=O)Nc1cnc3c(c1)Sc1ccccc1C(=O)N3CC#CC1CC1)C2 (stereo not shown)
< 500 nM | CC#CCN1C(=O)c2ccc(F)cc2Sc2cc(NC(=O)CC3COC3)ccc21 [—CH2CCMe; (oxetan-3-yl)CH2; CF/CH; CH]
500 to 1000 nM | CC#CCN1C(=O)c2ccccc2Sc2cc(NC(=O)C34CC(C(F)(F)F)(C3)C4)ccc21
< 500 nM | C#CCN1C(=O)c2ccc(Cl)cc2Sc2cc(NC(=O)[C@H]3C[C@H](OC)C3)ccc21 [—CH2CCH; trans-3-MeOcBu; CCl/CH; CH]
< 500 nM | CC#CCN1C(=O)c2ccccc2Sc2cc(NC(=O)C3CC4(CC(=NO)C4)C3)cnc21 (stereo not shown)
< 500 nM | CC#CCN1C(=O)c2ccccc2Sc2cc(NC(=O)C3CCCC3)cnc21 [—CH2CCMe; cPent; CH/CH; N]
< 500 nM | O=C1c2ccccc2Sc2cc(NC(=O)[C@H]3C[C@@H](O)C3)cnc2N1CC#CC1CC1 [—CH2CC^cPr; cis-3-OH-cBu; CH/CH; N]
1000 to 5000 nM | CC#CCN1C(=O)c2ccccc2Sc2cc(NC(=O)C3CCNC3)ccc21 (stereo not shown) [—CH2CCMe; pyrrolidin-3-yl; CH/CH; CH]
< 500 nM | O=C(Nc1ccc2c(c1)Sc1ccc(F)cc1C(=O)N2CC#CCl)C1CC2(CC(=NO)C2)C1 (stereo not shown)
< 500 nM | CC#CCN1C(=O)c2ccccc2Sc2cc(NC(=O)C(C)CCOC)cnc21 (stereo not shown) [—CH2CCMe; MeO(CH2)2CHMe-; CH/CH; N]
< 500 nM | N#CC12CC(C(=O)Nc3cnc4c(c3)Sc3ccccc3C(=O)N4CC#CC3CC3)(C1)C2
< 500 nM | CON=C1CC2(C1)CC(C(=O)Nc1ccc3c(c1)Sc1cc(Cl)ccc1C(=O)N3CC#CCl)C2 (stereo not shown)
< 500 nM | CC#CCN1C(=O)c2ccccc2Sc2cc(NC(=O)C3CC(OC)C3)ccc21 (stereo not drawn) [—CH2CCMe; cis-3-MeOcBu; CH/CH; CH]
< 500 nM | CC#CCN1C(=O)c2ccc(Cl)cc2Sc2cc(NC(=O)NCCOC)ccc21 [—CH2CCMe; NH(CH2)2OMe; CCl/CH; CH]
< 500 nM | CC#CCN1C(=O)c2ccccc2Sc2cc(NC(=O)C34CC(C#N)(C3)C4)cnc21
< 500 nM | CC#CCN1C(=O)c2ccccc2Sc2cc(NC(=O)[C@H]3C[C@@H](O)C3)ccc21 [—CH2CCMe; cis-3-OH-cBu; CH/CH; CH]
< 500 nM | C#CCN1C(=O)c2ccc(Cl)cc2Sc2cc(NC(=O)C3CC4(CC(=NO)C4)C3)cnc21 (stereo not shown)
< 500 nM | CO[C@H]1C[C@@H](C(=O)Nc2cnc3c(c2)Sc2cc(Cl)ccc2C(=O)N3CC#CCl)C1 [—CH2CCCl; cis-3-MeOcBu; CCl/CH; N]
< 500 nM | CC#CCN1C(=O)c2ccccc2Sc2cc(NC(=O)C34CC(OC)(C3)C4)ccc21
< 500 nM | CC#CCN1C(=O)c2cc(F)ccc2Sc2cc(NC(=O)C=CCOC)ccc21 [—CH2CCMe; CH—═CHCH2OMe; CH/CF; CH]

Structure (SMILES) | IC50
CC#CCN1C(=O)c2ccccc2Sc2cc(NC(=O)C3CCOC3)ccc21 (stereo not shown) | < 500 nM

Same assay, conditions: Table 9; HCT116, 72 hours; read-out: Activity

IC50 | Structure (SMILES)
< 500 nM | COCC1CC1C(=O)Nc1ccc2c(c1)C(C)(O)c1ccccc1C(=O)N2CC#CC1CC1 (racemic)
< 500 nM | CC#CCN1C(=O)c2ccccc2C(C)c2cc(NC(=O)C(C)CCOC)ccc21 (stereo not shown) [Table 9: —CH2CCMe; MeO(CH2)2CHMe-; CHMe]
< 500 nM | CC1c2ccccc2C(=O)N(CC#CC2CC2)c2ccc(NC(=O)[C@@H]3C[C@H]3CO)cc21 (relative stereo)
< 500 nM | CC#CCN1C(=O)c2ccccc2C(C#N)c2cc(NC(=O)C3CC4(CC(=NO)C4)C3)ccc21 (stereo not shown)

Structure (SMILES) | IC50
CC1c2ccccc2C(=O)N(CC#CC2CC2)c2ccc(NC(=O)C3CCCO3)cc21 (stereo not shown) | < 500 nM

Same assay, conditions: cell viability assay; Table 10 analogs of scaffold drawing 45 defined by R2, R3, X/Y, W; read-out: Activity

IC50 | Structure (SMILES)
< 500 nM | CC#CCN1C(=O)c2ccccc2Sc2cc(NC(=O)C3CC(OC)C3)ccc21 (stereo not drawn) [—CH2CCMe; cis-3-MeOcBu; CH/CH; CH]
